Data from publication PMC6429214, “Design, Synthesis and Biological Evaluation of Isoxazole-Based CK1 Inhibitors Modified with Chiral Pyrrolidine Scaffolds” (Molecules, 2019).

How the values were obtained:
Assay in all cases: 33PanQinase panel
Assay type in all cases: biochemical
MEK1 = molecular target: T1, MEK1 (Homo sapiens, UniProt Q02750); details: MEK1, 1 µM; read-out: Residual Activity (%)
T1 construct: purchased ProQinase
How it was run: (§1)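 Percent residual kinase activity versus DMSO control, from a radiometric 33PanQinase assay at 1 µM compound.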

GRK4 = molecular target: T2, GRK4 (Homo sapiens, UniProt P32298); details: GRK4, 1 µM; read-out: Residual Activity (%)
T2 construct: purchased ProQinase
T2 sequence (P32298 whole entry): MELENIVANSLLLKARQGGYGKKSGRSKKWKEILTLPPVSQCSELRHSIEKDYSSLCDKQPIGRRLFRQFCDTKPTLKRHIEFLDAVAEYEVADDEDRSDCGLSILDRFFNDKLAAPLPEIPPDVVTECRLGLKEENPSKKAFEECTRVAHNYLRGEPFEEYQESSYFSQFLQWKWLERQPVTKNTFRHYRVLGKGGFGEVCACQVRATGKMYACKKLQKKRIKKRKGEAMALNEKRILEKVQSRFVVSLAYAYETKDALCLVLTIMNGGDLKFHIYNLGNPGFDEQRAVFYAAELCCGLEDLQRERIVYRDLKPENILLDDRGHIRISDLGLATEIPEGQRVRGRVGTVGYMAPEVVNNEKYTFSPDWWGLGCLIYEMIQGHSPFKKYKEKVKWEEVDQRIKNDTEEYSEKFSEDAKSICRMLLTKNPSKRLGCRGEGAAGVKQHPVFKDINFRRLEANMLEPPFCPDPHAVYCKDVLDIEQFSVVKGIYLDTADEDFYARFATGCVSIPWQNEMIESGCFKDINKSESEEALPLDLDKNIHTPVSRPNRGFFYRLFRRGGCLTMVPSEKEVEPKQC
How it was run: as §1

DYRK2 = molecular target: T3, DYRK2 (Homo sapiens, UniProt Q92630); details: DYRK2, 1 µM; read-out: Residual Activity (%)
T3 construct: purchased ProQinase
How it was run: as §1

ITK = molecular target: T4, ITK (Homo sapiens, UniProt Q08881); details: read-out: Residual Activity (%)
T4 construct: purchased ProQinase
T4 sequence (Q08881 whole entry): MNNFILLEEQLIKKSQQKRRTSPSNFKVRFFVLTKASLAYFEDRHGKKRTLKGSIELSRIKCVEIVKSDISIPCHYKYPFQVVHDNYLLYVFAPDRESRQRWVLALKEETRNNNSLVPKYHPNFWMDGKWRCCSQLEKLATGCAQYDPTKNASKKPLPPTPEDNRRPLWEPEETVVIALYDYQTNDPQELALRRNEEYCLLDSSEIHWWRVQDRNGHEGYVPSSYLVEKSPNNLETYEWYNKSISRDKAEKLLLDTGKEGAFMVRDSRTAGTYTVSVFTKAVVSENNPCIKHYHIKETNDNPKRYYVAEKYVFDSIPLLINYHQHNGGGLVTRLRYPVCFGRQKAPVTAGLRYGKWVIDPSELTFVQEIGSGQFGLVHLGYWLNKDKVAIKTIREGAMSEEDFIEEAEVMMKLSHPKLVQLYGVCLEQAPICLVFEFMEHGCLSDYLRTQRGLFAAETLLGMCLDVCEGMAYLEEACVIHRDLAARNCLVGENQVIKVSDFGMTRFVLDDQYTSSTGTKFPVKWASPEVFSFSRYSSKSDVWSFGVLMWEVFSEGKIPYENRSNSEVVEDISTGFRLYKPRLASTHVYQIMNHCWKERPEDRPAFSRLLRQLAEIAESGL
How it was run: as §1

TTK = molecular target: T5, TTK (Homo sapiens, UniProt P33981); details: read-out: Residual Activity (%)
T5 construct: purchased ProQinase
How it was run: as §1

ZAP70 = molecular target: T6, ZAP70 (Homo sapiens, UniProt P43403); details: ZAP70, 1 µM; read-out: Residual Activity (%)
T6 construct: purchased ProQinase
How it was run: as §1

PKA = molecular target: T7, PKA (Homo sapiens, UniProt P17612); details: read-out: Residual Activity (%)
T7 construct: purchased ProQinase
How it was run: as §1

MST2 = molecular target: T8, MST2 (Homo sapiens, UniProt Q13188); details: MST2, 1 µM; read-out: Residual Activity (%)
T8 construct: purchased ProQinase
How it was run: as §1

TBK1 = molecular target: T9, TBK1 (Homo sapiens, UniProt Q9UHD2); details: TBK1, 1 µM; read-out: Residual Activity (%)
T9 construct: purchased ProQinase
How it was run: as §1

NLK = molecular target: T10, NLK (Homo sapiens, UniProt Q9UBE8); details: read-out: Residual Activity (%)
T10 construct: purchased ProQinase
T10 sequence (Q9UBE8 whole entry): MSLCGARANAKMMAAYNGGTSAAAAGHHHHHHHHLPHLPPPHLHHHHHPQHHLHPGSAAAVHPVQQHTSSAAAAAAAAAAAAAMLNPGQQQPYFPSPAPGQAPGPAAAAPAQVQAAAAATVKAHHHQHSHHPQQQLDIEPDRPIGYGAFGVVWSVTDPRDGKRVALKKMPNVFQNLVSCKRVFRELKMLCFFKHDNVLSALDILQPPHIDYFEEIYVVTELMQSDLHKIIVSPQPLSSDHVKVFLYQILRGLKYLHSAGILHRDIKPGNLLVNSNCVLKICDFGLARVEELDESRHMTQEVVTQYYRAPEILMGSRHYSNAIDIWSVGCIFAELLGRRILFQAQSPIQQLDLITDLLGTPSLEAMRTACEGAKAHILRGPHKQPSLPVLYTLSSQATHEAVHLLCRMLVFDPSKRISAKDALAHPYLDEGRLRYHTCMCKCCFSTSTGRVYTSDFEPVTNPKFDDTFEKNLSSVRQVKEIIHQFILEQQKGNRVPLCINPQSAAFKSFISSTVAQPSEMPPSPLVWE
How it was run: as §1

ACV-RL1 = molecular target: T11, ACV-RL1 (Homo sapiens, UniProt P37023); details: ACV-RL1, 1 µM; read-out: Residual Activity (%)
T11 construct: purchased ProQinase
How it was run: as §1

[1] = molecular target: T12, RAF1 Y340D/Y341D (untagged)** (Homo sapiens, UniProt P04049, Y340D/Y341D); details: read-out: Residual Activity (%)
T12 construct: purchased ProQinase
How it was run: as §1

TEC = molecular target: T13, TEC (Homo sapiens, UniProt P42680); details: read-out: Residual Activity (%)
T13 construct: purchased ProQinase
How it was run: as §1

JNK2 = molecular target: T14, JNK2 (Homo sapiens, UniProt P45984); details: JNK2, 1 µM; read-out: Residual Activity (%)
T14 construct: purchased ProQinase
How it was run: as §1

SGK1 = molecular target: T15, SGK1 (Homo sapiens, UniProt O00141); details: SGK1, 1 µM; read-out: Residual Activity (%)
T15 construct: purchased ProQinase
How it was run: as §1

MAP4K4 = molecular target: T16, MAP4K4 (Homo sapiens, UniProt O95819); details: MAP4K4, 1 µM; read-out: Residual Activity (%)
T16 construct: purchased ProQinase
How it was run: as §1

PIM1 = molecular target: T17, PIM1 (Homo sapiens, UniProt P11309); details: PIM1, 1 µM; read-out: Residual Activity (%)
T17 construct: purchased ProQinase
How it was run: as §1

CDK1/CycB1 = molecular target: T18, CDK1/CycB1 (Homo sapiens, UniProt P06493); details: CDK1/CycB1, 1 µM; read-out: Residual Activity (%)
T18 construct: purchased ProQinase
How it was run: as §1

IGF1-R = molecular target: T19, IGF1-R (Homo sapiens, UniProt P08069); details: read-out: Residual Activity (%)
T19 construct: purchased ProQinase
How it was run: as §1

LTK = molecular target: T20, LTK (Homo sapiens, UniProt P29376); details: read-out: Residual Activity (%)
T20 construct: purchased ProQinase
T20 sequence (P29376 17-864): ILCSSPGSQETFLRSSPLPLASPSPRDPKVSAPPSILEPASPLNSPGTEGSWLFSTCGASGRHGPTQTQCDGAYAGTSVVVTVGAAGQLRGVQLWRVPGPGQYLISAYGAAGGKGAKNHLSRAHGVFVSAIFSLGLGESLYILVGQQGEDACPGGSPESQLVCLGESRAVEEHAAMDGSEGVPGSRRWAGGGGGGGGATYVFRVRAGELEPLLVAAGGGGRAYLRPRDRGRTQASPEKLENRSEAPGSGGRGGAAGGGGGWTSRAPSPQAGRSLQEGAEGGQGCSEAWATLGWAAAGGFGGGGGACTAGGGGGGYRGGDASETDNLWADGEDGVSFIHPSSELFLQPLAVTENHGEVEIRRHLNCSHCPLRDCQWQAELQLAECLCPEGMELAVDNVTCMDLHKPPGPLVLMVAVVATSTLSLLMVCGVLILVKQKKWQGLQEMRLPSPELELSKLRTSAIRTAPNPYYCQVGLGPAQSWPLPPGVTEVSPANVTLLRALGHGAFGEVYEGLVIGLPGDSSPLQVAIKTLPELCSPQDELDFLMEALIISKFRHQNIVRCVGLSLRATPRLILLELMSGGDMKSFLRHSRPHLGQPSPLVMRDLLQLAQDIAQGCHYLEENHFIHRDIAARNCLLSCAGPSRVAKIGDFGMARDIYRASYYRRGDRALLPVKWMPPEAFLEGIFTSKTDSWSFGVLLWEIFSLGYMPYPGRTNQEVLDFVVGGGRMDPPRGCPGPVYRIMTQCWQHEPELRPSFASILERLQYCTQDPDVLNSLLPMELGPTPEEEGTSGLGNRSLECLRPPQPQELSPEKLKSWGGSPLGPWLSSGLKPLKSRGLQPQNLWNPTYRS
How it was run: as §1

PDK1 = molecular target: T21, PDK1 (Homo sapiens, UniProt O15530); details: PDK1, 1 µM; read-out: Residual Activity (%)
T21 construct: purchased ProQinase
How it was run: as §1

MST1 = molecular target: T22, MST1 (Homo sapiens, UniProt Q13043); details: MST1, 1 µM; read-out: Residual Activity (%)
T22 construct: purchased ProQinase
How it was run: as §1

CDK4/CycD3 = molecular target: T23, CDK4/CycD3 (Homo sapiens, UniProt P11802); details: CDK4/CycD3, 1 µM; read-out: Residual Activity (%)
T23 construct: purchased ProQinase
T23 sequence (P11802 whole entry): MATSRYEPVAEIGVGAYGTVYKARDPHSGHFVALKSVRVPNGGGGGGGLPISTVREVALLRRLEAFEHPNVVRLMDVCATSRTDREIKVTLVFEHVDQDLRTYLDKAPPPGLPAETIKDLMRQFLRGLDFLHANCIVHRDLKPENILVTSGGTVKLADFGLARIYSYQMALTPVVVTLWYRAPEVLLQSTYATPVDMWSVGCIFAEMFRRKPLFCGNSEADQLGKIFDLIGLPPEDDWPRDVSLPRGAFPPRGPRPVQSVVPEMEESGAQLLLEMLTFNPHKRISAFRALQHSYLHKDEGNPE
T23 sequence (P30281 whole entry partner): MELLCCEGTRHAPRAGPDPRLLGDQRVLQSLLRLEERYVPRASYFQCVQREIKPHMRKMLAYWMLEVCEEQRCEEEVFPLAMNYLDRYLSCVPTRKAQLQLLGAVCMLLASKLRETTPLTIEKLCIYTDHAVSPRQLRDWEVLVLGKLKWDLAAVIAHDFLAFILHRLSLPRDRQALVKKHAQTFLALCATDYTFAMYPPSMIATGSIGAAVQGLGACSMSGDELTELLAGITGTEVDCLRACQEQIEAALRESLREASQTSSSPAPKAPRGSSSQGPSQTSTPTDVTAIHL
How it was run: as §1

ABL1 = molecular target: T24, ABL1 (Homo sapiens, UniProt P00519); details: ABL1, 1 µM; read-out: Residual Activity (%)
T24 construct: purchased ProQinase
How it was run: as §1

Aurora-A = molecular target: T25, Aurora-A (Homo sapiens, UniProt O14965); details: read-out: Residual Activity (%)
T25 construct: purchased ProQinase
T25 sequence (O14965 whole entry): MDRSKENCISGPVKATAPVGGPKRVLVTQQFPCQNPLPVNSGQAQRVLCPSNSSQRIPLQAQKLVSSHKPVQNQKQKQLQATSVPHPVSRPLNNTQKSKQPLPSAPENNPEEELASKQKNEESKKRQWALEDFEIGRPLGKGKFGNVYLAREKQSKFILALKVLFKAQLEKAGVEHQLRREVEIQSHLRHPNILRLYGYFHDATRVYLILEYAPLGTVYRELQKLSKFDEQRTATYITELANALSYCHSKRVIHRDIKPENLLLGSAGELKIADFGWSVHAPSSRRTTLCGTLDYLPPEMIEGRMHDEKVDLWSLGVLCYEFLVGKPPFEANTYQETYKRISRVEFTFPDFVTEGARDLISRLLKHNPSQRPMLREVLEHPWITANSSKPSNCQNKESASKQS
How it was run: as §1

CDC7/DBF4 = molecular target: T26, CDC7/DBF4 (Homo sapiens, UniProt O00311); details: CDC7/DBF4, 1 µM; read-out: Residual Activity (%)
T26 construct: purchased ProQinase
How it was run: as §1

RPS6KA3 = molecular target: T27, RPS6KA3 (Homo sapiens, UniProt P51812); details: RPS6KA3, 1 µM; read-out: Residual Activity (%)
T27 construct: purchased ProQinase
T27 sequence (P51812 whole entry): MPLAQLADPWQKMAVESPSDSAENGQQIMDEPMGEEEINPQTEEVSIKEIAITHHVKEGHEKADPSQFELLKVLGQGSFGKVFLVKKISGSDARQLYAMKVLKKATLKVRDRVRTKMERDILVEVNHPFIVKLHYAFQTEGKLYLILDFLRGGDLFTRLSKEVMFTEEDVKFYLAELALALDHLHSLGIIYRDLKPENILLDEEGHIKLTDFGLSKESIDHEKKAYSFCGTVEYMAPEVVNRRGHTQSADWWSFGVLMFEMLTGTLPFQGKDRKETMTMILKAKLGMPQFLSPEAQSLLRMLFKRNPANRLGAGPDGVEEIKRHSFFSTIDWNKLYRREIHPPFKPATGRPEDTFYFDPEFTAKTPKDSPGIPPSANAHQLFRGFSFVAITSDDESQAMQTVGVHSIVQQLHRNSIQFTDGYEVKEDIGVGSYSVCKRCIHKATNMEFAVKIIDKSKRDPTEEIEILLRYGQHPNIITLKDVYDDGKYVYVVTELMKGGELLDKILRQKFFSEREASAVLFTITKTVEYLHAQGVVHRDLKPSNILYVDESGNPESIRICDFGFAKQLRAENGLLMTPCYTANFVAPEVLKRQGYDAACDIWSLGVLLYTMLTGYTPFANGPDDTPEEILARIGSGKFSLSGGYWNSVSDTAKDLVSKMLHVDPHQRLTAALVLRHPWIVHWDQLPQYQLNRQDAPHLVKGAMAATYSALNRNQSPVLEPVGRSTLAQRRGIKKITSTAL
How it was run: as §1

CSF1-R = molecular target: T28, CSF1-R (Homo sapiens, UniProt P07333); details: read-out: Residual Activity (%)
T28 construct: purchased ProQinase
How it was run: as §1

BMX = molecular target: T29, BMX (Homo sapiens, UniProt P51813); details: read-out: Residual Activity (%)
T29 construct: purchased ProQinase
How it was run: as §1

CLK2 = molecular target: T30, CLK2 (Homo sapiens, UniProt P49760); details: CLK2, 1 µM; read-out: Residual Activity (%)
T30 construct: purchased ProQinase
How it was run: as §1

T1 sequence (Q02750 whole entry): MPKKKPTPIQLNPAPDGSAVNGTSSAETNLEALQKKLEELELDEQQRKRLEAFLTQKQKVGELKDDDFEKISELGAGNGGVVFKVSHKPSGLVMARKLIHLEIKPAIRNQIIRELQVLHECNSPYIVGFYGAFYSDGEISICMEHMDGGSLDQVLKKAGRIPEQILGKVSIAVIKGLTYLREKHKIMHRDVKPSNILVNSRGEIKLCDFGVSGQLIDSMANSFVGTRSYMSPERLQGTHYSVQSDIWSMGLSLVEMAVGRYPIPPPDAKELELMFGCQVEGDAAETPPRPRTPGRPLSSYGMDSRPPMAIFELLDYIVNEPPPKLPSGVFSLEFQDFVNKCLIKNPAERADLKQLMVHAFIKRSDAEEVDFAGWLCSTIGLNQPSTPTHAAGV

COc1ccc(-c2cc(C(=O)Nc3cc(-c4c(-c5ccc(F)cc5)noc4C(C)C)ccn3)n(CC3NCC(O)C3O)c2)cc1 (stereo not drawn) [29d]
remaining activity at 1 µM (MEK1): 90%
remaining activity at 1 µM (GRK4): 111%
remaining activity at 1 µM (DYRK2): 96%
remaining activity at 1 µM (ITK): 114%
remaining activity at 1 µM (TTK): 100%
remaining activity at 1 µM (ZAP70): 116%
remaining activity at 1 µM (PKA): 96%
remaining activity at 1 µM (MST2): 85%
remaining activity at 1 µM (TBK1): 113%
remaining activity at 1 µM (NLK): 71%
remaining activity at 1 µM (ACV-RL1): 115%
remaining activity at 1 µM [1]: 103%
remaining activity at 1 µM (TEC): 109%
remaining activity at 1 µM (JNK2): 40%
remaining activity at 1 µM (SGK1): 102%
remaining activity at 1 µM (MAP4K4): 83%
remaining activity at 1 µM (PIM1): 94%
remaining activity at 1 µM (CDK1/CycB1): 107%
remaining activity at 1 µM (IGF1-R): 104%
remaining activity at 1 µM (LTK): 98%
remaining activity at 1 µM (PDK1): 93%
remaining activity at 1 µM (MST1): 101%
remaining activity at 1 µM (CDK4/CycD3): 98%
remaining activity at 1 µM (ABL1): 95%
remaining activity at 1 µM (Aurora-A): 103%
remaining activity at 1 µM (CDC7/DBF4): 94%
remaining activity at 1 µM (RPS6KA3): 107%
remaining activity at 1 µM (CSF1-R): 108%
remaining activity at 1 µM (BMX): 96%
remaining activity at 1 µM (CLK2): 116%
